As usually defined, the pIC50 is the negative decadic logarithm of the IC50, by convention in mol/L.

pIC50: −log10 of the molar value.

The target of the experiment is T1, aurora A kinase (Homo sapiens, UniProt O14965).
T1 sequence (O14965 1-403): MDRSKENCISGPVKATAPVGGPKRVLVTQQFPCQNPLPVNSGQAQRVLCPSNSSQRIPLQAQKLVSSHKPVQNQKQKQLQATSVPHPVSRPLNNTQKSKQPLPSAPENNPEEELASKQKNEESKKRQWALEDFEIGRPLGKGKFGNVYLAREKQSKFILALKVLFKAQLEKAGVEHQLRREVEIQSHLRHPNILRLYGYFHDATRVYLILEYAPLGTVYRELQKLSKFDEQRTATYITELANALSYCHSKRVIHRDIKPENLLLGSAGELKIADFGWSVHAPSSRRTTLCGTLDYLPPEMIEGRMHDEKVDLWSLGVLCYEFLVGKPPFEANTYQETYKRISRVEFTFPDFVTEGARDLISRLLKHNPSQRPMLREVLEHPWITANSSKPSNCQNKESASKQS
Kind of experiment: Aurora A in vitro kinase assay (ELISA). The following applies: 30 μM ATP, 45 minutes. The experiment is classed as biochemical. As for the experimental part: Kinase activities were measured by Enzyme-Linked Immunosorbent Assay (ELISA): Maxisorp 384-well plates (Nunc) were coated with recombinant fusion protein comprising residues 1-15 of Histone H3 fused to the N-terminus of Glutathione-S-Transferase. Plates were then blocked with a solution of 1 mg/mL I-block (Tropix Inc) in phosphate-buffered saline. Kinase reactions were carried out in the wells of the ELISA plate by combining an appropriate amount of Aur A and B kinases and/or mutants thereof with test compound and 30 μM ATP. The reaction buffer was 1× Kinase Buffer (Cell Signaling Technologies) supplemented with 1 μg/mL I-block. Reactions were stopped after 45 minutes by addition of 25 mM EDTA. After washing, susbstrate phosphorylation was detected by addition of anti-phospho-Histone H3 (Ser 10) 6G3 mAb (Cell Signaling cat #9706) and sheep anti-mouse pAb-HRP (Amersham cat# NA931V), followed by colorimetric development with TMB.
A general note: An ELISA detects its analyte on a solid surface through an enzyme-linked reagent.
`CN(C)CCNC(=O)c1ccc(Nc2ncc(Cl)c(Nc3ccccc3NC(=O)C3CC3)n2)cc1` [compound 9] had a pIC50 of 8.60.
With `N#Cc1ccc(Nc2ncc(Cl)c(Nc3ccccc3NC(=O)C3CC3)n2)cc1` [compound 32] the figure was 8.89; with `CC(C)(C)C1CCC(NC(=O)c2ccc(Nc3ncc(Cl)c(Nc4ccccc4NC(=O)C4CC4)n3)cc2)CC1` (centres unmarked) [compound 40], 7.92; with `O=C(Nc1ccccc1Nc1nc(Nc2ccc(C(=O)N3CCC(O)(Cc4ccccc4)CC3)cc2)ncc1Cl)C1CC1` [compound 44], 8.74.
With `O=C(Nc1ccccc1Nc1nc(Nc2ccc(-n3cccc3)cc2)ncc1Cl)C1CC1` [compound 53] the figure was 8.19; with `O=C(/C=C/c1ccccc1)Nc1ccccc1Nc1nc(Nc2ccc(N3CCOCC3)cc2)ncc1Cl` [compound 63], 8.36.
With `O=C(Nc1ccccc1Nc1nc(Nc2ccc(N3CCOCC3)cc2)ncc1Cl)c1ccccc1` [compound 67] the figure was 7.74; with `O=C(Nc1ccccc1Nc1nc(Nc2ccc(N3CCOCC3)cc2)ncc1Cl)C1CCCCC1` [compound 75], 7.85.
On to `CC(C)(C)C(=O)Nc1ccccc1Nc1nc(Nc2ccc(N3CCOCC3)cc2)ncc1Cl` [compound 77], for which the pIC50 is 8.38.
In turn, `O=C(Nc1ccccc1Oc1nc(Nc2ccc(N3CCOCC3)cc2)ncc1Cl)C1CC1` [compound 80] gave a pIC50 of 7.44. Against the preceding compound, the pIC50 is 0.94 log units lower.
With `Nc1ccccc1Oc1nc(Nc2ccc(N3CCS(=O)(=O)CC3)cc2)ncc1Cl` [compound 83] the figure was 8.30.
For `O=C(NC1CC1)c1ccccc1Nc1nc(Nc2ccc(N3CCOCC3)cc2)ncc1Cl` [compound 85] the value was 8.37; for `O=C(Nc1ccccc1Nc1nc(Nc2ccc(N3CCOCC3)cc2)ncc1F)C1CC1` [compound 111], 8.30.
For `O=C(Nc1ccccc1Nc1nc(Nc2ccc(N3CCOCC3)cc2)ncc1[N+](=O)[O-])C1CC1` [compound 127] the value was 7.99.

The values above are taken from US20100144732A1, “PYRIMIDINE KINASE INHIBITORS” (priority 2006, published 2010).
